Reference: patent publication US10537580B2, “Azocane and azonane derivatives and methods of treating hepatitis B infections” (Novira Therapeutics, Inc., priority 2015, dated 2020)

Experiments:
[1] = molecular target: mutant C150 HBV capsid protein (C150Bo) (Hepatitis B virus genotype D subtype adw, UniProt P03147, C107A/C48A/C61A/R150C); assay: HBV assembly assay (fluorescence quenching in vitro capsid assembly); format: biochemical; details: at about 10 μM; 50 mM Hepes pH 7.5, 150 mM NaCl, 1 hour at room temperature
[2] = test system: HBV replication in HepG2-2.2.15 cells; assay: Inhibition of HBV replication dot-blot assay; format: cell-based; details: at 10 μM, six days, reduction in HBV DNA levels
Protocol: Compounds active in the HBV assembly assay are tested for their activity and toxicity in cellular assay. In the first anti-viral assay, the ability of compounds to inhibit HBV replication in an HBV-producing hepatoma cell line using the dot-blot method is evaluated.
Briefly, confluent monolayers of HepG2-2.2.15 cells are incubated with complete medium containing various concentrations of a test compound. Three days later, the culture medium is replaced with fresh medium containing the appropriately diluted test compound. Six days following the initial administration of the test compound, the cell culture supernatant is collected, and cell lysis is performed. The samples are applied onto Nylos membranes and DNA is immobilized to the membrane by UV cross-linking. After pre-hybridization, the HBV probe is added and the hybridization is performed overnight. The membranes are exposed to the Kodak films; antiviral activity is calculated from the reduction in HBV DNA levels (EC50). The EC50 for antiviral activity is calculated from the dose response curves of active compounds. Assay performance over time is monitored by the use of the standard positive control compounds ETV, BAY 41-4109, and HAP-1.
Selected compounds were tested for their activity and toxicity in cellular assay. In the first anti-viral assay, the ability of compounds to inhibit HBV replication in an HBV-producing hepatoma cell line using the dot-blot method was evaluated.
Confluent monolayers of HepG2-2.2.15 cells were incubated with complete medium containing various concentrations of a test compound. Three days later, the culture medium was replaced with fresh medium containing the appropriately diluted test compound. Six days following the initial administration of the test compound, the cell culture supernatant was collected, and cell lysis was performed. The samples were applied onto Nylos membranes and DNA was immobilized to the membrane by UV cross-linking. After pre-hybridization, the HBV probe was added and the hybridization was performed overnight. The membranes were exposed to the Kodak films; antiviral activity was calculated from the reduction in HBV DNA levels (EC50). The EC50 for antiviral activity was calculated from the dose response curves of active compounds. Assay performance over time was monitored by the use of the standard positive control compounds ETV, BAY 41-4109, and HAP-1.

mutant C150 HBV capsid protein (C150Bo), sequence (P03147 whole entry C107A/C48A/C61A/R150C, looked up): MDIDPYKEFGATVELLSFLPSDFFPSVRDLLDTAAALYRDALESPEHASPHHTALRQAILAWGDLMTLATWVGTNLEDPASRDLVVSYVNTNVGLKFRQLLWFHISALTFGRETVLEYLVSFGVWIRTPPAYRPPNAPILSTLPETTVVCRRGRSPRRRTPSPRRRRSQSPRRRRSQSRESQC

With `O=C(Nc1ccc(F)c(Cl)c1)c1ccc(F)c(S(=O)(=O)N2CCOCCC(O)C2)c1` (stereo not shown) [Compound 2039] the “Activity (HBV assembly assay)” value [1] was “+ (‘+’ indicates >50% activity at about 10 μM)” and the Activity in dot-blot-assay [2] was “+ (‘+’ indicates >50% activity at 10 μM)”.
For `O=C(Nc1ccc(F)c(Cl)c1)c1ccc(F)c(S(=O)(=O)N2CCOCC(O)CC2)c1` (stereo not shown) [Compound 2040_E1], the “Activity (HBV assembly assay)” value [1] was “+ (‘+’ indicates >50% activity at about 10 μM)” and the Activity in dot-blot-assay [2] was “+ (‘+’ indicates >50% activity at 10 μM)”.
With `O=C(Nc1ccc(F)c(Cl)c1)c1ccc(F)c(S(=O)(=O)N2CCOCC(O)CC2)c1` (stereo not shown) [Compound 2040_E2] the “Activity (HBV assembly assay)” value [1] was “+ (‘+’ indicates >50% activity at about 10 μM)” and the Activity in dot-blot-assay [2] was “+ (‘+’ indicates >50% activity at 10 μM)”.
`O=C(Nc1ccc(F)c(Cl)c1)c1ccc(F)c(S(=O)(=O)N2CCCCC(O)C(F)C2)c1` (stereo not shown) [Compound 2285_D1] was tested, and the “Activity (HBV assembly assay)” value [1] was “+ (‘+’ indicates >50% activity at about 10 μM)” and the Activity in dot-blot-assay [2] was “+ (‘+’ indicates >50% activity at 10 μM)”.
With `O=C(Nc1ccc(F)c(Cl)c1)c1ccc(F)c(S(=O)(=O)N2CCCCC(O)C(F)C2)c1` (stereo not shown) [Compound 2285_D2] the “Activity (HBV assembly assay)” value [1] was “+ (‘+’ indicates >50% activity at about 10 μM)” and the Activity in dot-blot-assay [2] was “+ (‘+’ indicates >50% activity at 10 μM)”.
`O=C(Nc1cc(F)c(F)c(F)c1)c1ccc(F)c(S(=O)(=O)N2CCCCCCCC2)c1` [Compound 2435] was tested, and the “Activity (HBV assembly assay)” value [1] was “+ (‘+’ indicates >50% activity at about 10 μM)” and the Activity in dot-blot-assay [2] was “+ (‘+’ indicates >50% activity at 10 μM)”.
`O=C(Nc1ccc(F)c(Cl)c1)c1ccc(F)c(S(=O)(=O)N2CCCCCCCC2)c1` [Compound 2436] was tested, and the “Activity (HBV assembly assay)” value [1] was “+ (‘+’ indicates >50% activity at about 10 μM)” and the Activity in dot-blot-assay [2] was “+ (‘+’ indicates >50% activity at 10 μM)”.
With `O=C(Nc1cc(F)c(F)c(F)c1)c1ccc(F)c(S(=O)(=O)N2CCOCC(O)CC2)c1` (stereo not shown) [Compound 2520] the “Activity (HBV assembly assay)” value [1] was “+ (‘+’ indicates >50% activity at about 10 μM)” and the Activity in dot-blot-assay [2] was “+ (‘+’ indicates >50% activity at 10 μM)”.
